Read-outs that look alike come from different tables or passages of the source.
Assays:
Porphyromonas gingivalis = settings: P gingivalis, BHI
Procedure: (§1) Late exponential growth phase liquid cultures were prepared by transferring the respective bacterium from blood agar plates to BHI and overnight incubation at 37° C. in an anaerobic atmosphere for A. viscosus, V. parvula, F. nucleatum, P. gingivalis, P. intermedia, T forsythia, A. naeslundii, and C. sputigena, and in a 5% CO2 environment for S. salivarius, S. sanguinis, S. mitis, A. actinomycetemcomitans, S. mutans, S. sobrinus and S. gordonii. Overnight cultures were transferred to BHI and adjusted to a concentration of 1×10^7 CFU/ml (colony forming units per ml) by measuring the optical density at 600 nm (OD600) (BioRad SmartSpec 3000). For each strain, 200 μl of the bacterial suspension was added to a 96-well plate containing 20 μl of the respective carboxylic acids. Final concentrations of the carboxylic acids were set to 5, 10, 20 and 25 μmol/ml. […] Plates were incubated as previously described.
(§2) For each combination of bacterium/carboxylic acid, and for each of their respective controls (i.e. the particular bacterium in the nutritionally rich medium with no carboxylic acid), the optical density was measured at 630 nm (OD630) at 0 h, 24 h and 48 h (Thermo Scientific Multiskan Ascent). Additionally, the OD630 for combinations of bacterium/carboxylic acid grown in a 5% CO2 environment were also measured every hour between 0 h and 9 h.
(§3) The experiment was carried out on three different days (thus providing 3 biological replicas) and on each day the experiment was carried out in quadruple (thus providing 4 technical replicas) for each combination of bacterium with carboxylic acid and for each control. For each day and for each combination, the average (mean) of the values obtained (as detailed above) for the four technical replicas was calculated to provide a single value for each combination on each day.

Streptococcus mutans = settings: S mutans, BHI
Procedure: as §1, §2, §3

Actinomyces viscosus = settings: A viscosus, BHI
Procedure: as §1, §2, §3

[1] = test system: beneficial oral bacteria and pathogenic oral bacteria; settings: over 48 hours, threshold value of 1.25
Source text: The beneficial oral bacteria tested were Streptococcus mitis, Streptococcus salivarius, Streptococcus sanguinis, Actinomyces viscosus, Streptococcus gordonii, Capnocytophaga sputigena, Actinomyces naeslundii and Veillonella parvula. The pathogenic oral bacteria tested were Streptococcus mutans, Prevotella intermedia, Porphyromonas gingivalis, Fusobacterium nucleatum, Tannerella forsythia, Aggregatibacter actinomycetemcomitans and Streptococcus sobrinus.
as §1, §2, §3
This value was selected in order to exclude low-stimulating metabolites and avoid false positive results.

Prevotella intermedia = settings: P intermedia, BHI
Procedure: as §1, §2, §3

Streptococcus gordonii = settings: S gordonii, BHI
Procedure: as §1, §2, §3

Capnocytophaga sputigena = settings: C sputigena, BHI
Procedure: as §1, §2, §3

Streptococcus mitis = settings: S mitis, BHI
Procedure: as §1, §2, §3

Streptococcus sanguinis = settings: S sanguinis, BHI
Procedure: as §1, §2, §3

Tannerella forsythia = settings: T forsythia, BHI
Procedure: as §1, §2, §3

N[C@@H](CC(=O)O)C(=O)O [L-aspartic acid]
extent of growth, maximal OD630 over 48 hr divided by maximal OD of control (control = 1) (Porphyromonas gingivalis; 5 μmol/ml): 1.0608 | extent of growth, maximal OD630 over 48 hr divided by maximal OD of control (control = 1) (Porphyromonas gingivalis; 10 μmol/ml): 1.0376 | extent of growth, maximal OD630 over 48 hr divided by maximal OD of control (control = 1) (Porphyromonas gingivalis; 20 μmol/ml): 1.0578 | extent of growth, maximal OD630 over 48 hr divided by maximal OD of control (control = 1) (Porphyromonas gingivalis; 25 μmol/ml): 1.0084 | extent of growth, maximal OD630 over 48 hr divided by maximal OD of control (control = 1) (Streptococcus mutans; 5 μmol/ml): 0.9466 | extent of growth, maximal OD630 over 48 hr divided by maximal OD of control (control = 1) (Streptococcus mutans; 10 μmol/ml): 0.9230 | extent of growth, maximal OD630 over 48 hr divided by maximal OD of control (control = 1) (Streptococcus mutans; 20 μmol/ml): 0.9036 | extent of growth, maximal OD630 over 48 hr divided by maximal OD of control (control = 1) (Streptococcus mutans; 25 μmol/ml): 0.9149 | extent of growth, maximal OD630 over 48 hr divided by maximal OD of control (control = 1) (Actinomyces viscosus; 5 μmol/ml): 0.6862 | extent of growth, maximal OD630 over 48 hr divided by maximal OD of control (control = 1) (Actinomyces viscosus; 10 μmol/ml): 0.6163 | extent of growth, maximal OD630 over 48 hr divided by maximal OD of control (control = 1) (Actinomyces viscosus; 20 μmol/ml): 0.5787 | extent of growth, maximal OD630 over 48 hr divided by maximal OD of control (control = 1) (Actinomyces viscosus; 25 μmol/ml): 0.5023 | prebiotic effect (extent of growth) ([1]; 10 μmol/ml): exhibited prebiotic effects | prebiotic effect (extent of growth) ([1]; 20 μmol/ml): exhibited prebiotic effects | extent of growth, maximal OD630 over 48 hr divided by maximal OD of control (control = 1) (Prevotella intermedia; 5 μmol/ml): 1.0755 | extent of growth, maximal OD630 over 48 hr divided by maximal OD of control (control = 1) (Prevotella intermedia; 10 μmol/ml): 1.1717 | extent of growth, maximal OD630 over 48 hr divided by maximal OD of control (control = 1) (Prevotella intermedia; 20 μmol/ml): 1.1438 | extent of growth, maximal OD630 over 48 hr divided by maximal OD of control (control = 1) (Prevotella intermedia; 25 μmol/ml): 1.1396 | extent of growth, maximal OD630 over 48 hr divided by maximal OD of control (control = 1) (Streptococcus gordonii; 5 μmol/ml): 0.9448 | extent of growth, maximal OD630 over 48 hr divided by maximal OD of control (control = 1) (Streptococcus gordonii; 10 μmol/ml): 0.9400 | extent of growth, maximal OD630 over 48 hr divided by maximal OD of control (control = 1) (Streptococcus gordonii; 20 μmol/ml): 0.9583 | extent of growth, maximal OD630 over 48 hr divided by maximal OD of control (control = 1) (Streptococcus gordonii; 25 μmol/ml): 0.9466 | extent of growth, maximal OD630 over 48 hr divided by maximal OD of control (control = 1) (Capnocytophaga sputigena; 5 μmol/ml): 0.9521 | extent of growth, maximal OD630 over 48 hr divided by maximal OD of control (control = 1) (Capnocytophaga sputigena; 10 μmol/ml): 0.9529 | extent of growth, maximal OD630 over 48 hr divided by maximal OD of control (control = 1) (Capnocytophaga sputigena; 20 μmol/ml): 0.9776 | extent of growth, maximal OD630 over 48 hr divided by maximal OD of control (control = 1) (Capnocytophaga sputigena; 25 μmol/ml): 0.9489 | extent of growth, maximal OD630 over 48 hr divided by maximal OD of control (control = 1) (Streptococcus mitis; 5 μmol/ml): 1.2333 | extent of growth, maximal OD630 over 48 hr divided by maximal OD of control (control = 1) (Streptococcus mitis; 10 μmol/ml): 1.2959 | extent of growth, maximal OD630 over 48 hr divided by maximal OD of control (control = 1) (Streptococcus mitis; 20 μmol/ml): 1.2536 | extent of growth, maximal OD630 over 48 hr divided by maximal OD of control (control = 1) (Streptococcus mitis; 25 μmol/ml): 1.1257 | extent of growth, maximal OD630 over 48 hr divided by maximal OD of control (control = 1) (Streptococcus sanguinis; 5 μmol/ml): 0.8662 | extent of growth, maximal OD630 over 48 hr divided by maximal OD of control (control = 1) (Streptococcus sanguinis; 10 μmol/ml): 0.8606 | extent of growth, maximal OD630 over 48 hr divided by maximal OD of control (control = 1) (Streptococcus sanguinis; 20 μmol/ml): 0.8622 | extent of growth, maximal OD630 over 48 hr divided by maximal OD of control (control = 1) (Streptococcus sanguinis; 25 μmol/ml): 0.8613 | extent of growth, maximal OD630 over 48 hr divided by maximal OD of control (control = 1) (Tannerella forsythia; 5 μmol/ml): 0.9947 | extent of growth, maximal OD630 over 48 hr divided by maximal OD of control (control = 1) (Tannerella forsythia; 10 μmol/ml): 0.9717 | extent of growth, maximal OD630 over 48 hr divided by maximal OD of control (control = 1) (Tannerella forsythia; 20 μmol/ml): 1.0111 | extent of growth, maximal OD630 over 48 hr divided by maximal OD of control (control = 1) (Tannerella forsythia; 25 μmol/ml): 0.9935

O=C(O)CCC(=O)O [Succinic acid, succinic acid]
extent of growth, maximal OD630 over 48 hr divided by maximal OD of control (control = 1) (Porphyromonas gingivalis; 5 μmol/ml): 1.0091 | extent of growth, maximal OD630 over 48 hr divided by maximal OD of control (control = 1) (Porphyromonas gingivalis; 10 μmol/ml): 0.8129 | extent of growth, maximal OD630 over 48 hr divided by maximal OD of control (control = 1) (Porphyromonas gingivalis; 20 μmol/ml): 0.4103 | extent of growth, maximal OD630 over 48 hr divided by maximal OD of control (control = 1) (Porphyromonas gingivalis; 25 μmol/ml): 0.4061 | extent of growth, maximal OD630 over 48 hr divided by maximal OD of control (control = 1) (Streptococcus mutans; 5 μmol/ml): 0.8643 | extent of growth, maximal OD630 over 48 hr divided by maximal OD of control (control = 1) (Streptococcus mutans; 10 μmol/ml): 0.8599 | extent of growth, maximal OD630 over 48 hr divided by maximal OD of control (control = 1) (Streptococcus mutans; 20 μmol/ml): 0.8734 | extent of growth, maximal OD630 over 48 hr divided by maximal OD of control (control = 1) (Streptococcus mutans; 25 μmol/ml): 0.8448 | extent of growth, maximal OD630 over 48 hr divided by maximal OD of control (control = 1) (Actinomyces viscosus; 5 μmol/ml): 0.5671 | extent of growth, maximal OD630 over 48 hr divided by maximal OD of control (control = 1) (Actinomyces viscosus; 10 μmol/ml): 0.3693 | extent of growth, maximal OD630 over 48 hr divided by maximal OD of control (control = 1) (Actinomyces viscosus; 20 μmol/ml): 0.1827 | extent of growth, maximal OD630 over 48 hr divided by maximal OD of control (control = 1) (Actinomyces viscosus; 25 μmol/ml): 0.1586 | prebiotic effect (extent of growth) ([1]; 20 μmol/ml): exhibited prebiotic effects | prebiotic effect (extent of growth) ([1]; 25 μmol/ml): exhibited prebiotic effects | extent of growth, maximal OD630 over 48 hr divided by maximal OD of control (control = 1) (Prevotella intermedia; 5 μmol/ml): 0.8288 | extent of growth, maximal OD630 over 48 hr divided by maximal OD of control (control = 1) (Prevotella intermedia; 10 μmol/ml): 0.4471 | extent of growth, maximal OD630 over 48 hr divided by maximal OD of control (control = 1) (Prevotella intermedia; 20 μmol/ml): 0.0944 | extent of growth, maximal OD630 over 48 hr divided by maximal OD of control (control = 1) (Prevotella intermedia; 25 μmol/ml): 0.0921 | extent of growth, maximal OD630 over 48 hr divided by maximal OD of control (control = 1) (Streptococcus gordonii; 5 μmol/ml): 0.8555 | extent of growth, maximal OD630 over 48 hr divided by maximal OD of control (control = 1) (Streptococcus gordonii; 10 μmol/ml): 0.7021 | extent of growth, maximal OD630 over 48 hr divided by maximal OD of control (control = 1) (Streptococcus gordonii; 20 μmol/ml): 0.2928 | extent of growth, maximal OD630 over 48 hr divided by maximal OD of control (control = 1) (Streptococcus gordonii; 25 μmol/ml): 0.1860 | extent of growth, maximal OD630 over 48 hr divided by maximal OD of control (control = 1) (Capnocytophaga sputigena; 5 μmol/ml): 0.9743 | extent of growth, maximal OD630 over 48 hr divided by maximal OD of control (control = 1) (Capnocytophaga sputigena; 10 μmol/ml): 0.7668 | extent of growth, maximal OD630 over 48 hr divided by maximal OD of control (control = 1) (Capnocytophaga sputigena; 20 μmol/ml): 0.6198 | extent of growth, maximal OD630 over 48 hr divided by maximal OD of control (control = 1) (Capnocytophaga sputigena; 25 μmol/ml): 0.4571 | extent of growth, maximal OD630 over 48 hr divided by maximal OD of control (control = 1) (Streptococcus mitis; 5 μmol/ml): 0.7273 | extent of growth, maximal OD630 over 48 hr divided by maximal OD of control (control = 1) (Streptococcus mitis; 10 μmol/ml): 0.7615 | extent of growth, maximal OD630 over 48 hr divided by maximal OD of control (control = 1) (Streptococcus mitis; 20 μmol/ml): 0.4339 | extent of growth, maximal OD630 over 48 hr divided by maximal OD of control (control = 1) (Streptococcus mitis; 25 μmol/ml): 0.1591 | extent of growth, maximal OD630 over 48 hr divided by maximal OD of control (control = 1) (Streptococcus sanguinis; 5 μmol/ml): 0.7980 | extent of growth, maximal OD630 over 48 hr divided by maximal OD of control (control = 1) (Streptococcus sanguinis; 10 μmol/ml): 0.6726 | extent of growth, maximal OD630 over 48 hr divided by maximal OD of control (control = 1) (Streptococcus sanguinis; 20 μmol/ml): 0.2724 | extent of growth, maximal OD630 over 48 hr divided by maximal OD of control (control = 1) (Streptococcus sanguinis; 25 μmol/ml): 0.2132 | extent of growth, maximal OD630 over 48 hr divided by maximal OD of control (control = 1) (Tannerella forsythia; 5 μmol/ml): 0.9040 | extent of growth, maximal OD630 over 48 hr divided by maximal OD of control (control = 1) (Tannerella forsythia; 10 μmol/ml): 0.7937 | extent of growth, maximal OD630 over 48 hr divided by maximal OD of control (control = 1) (Tannerella forsythia; 20 μmol/ml): 0.7975 | extent of growth, maximal OD630 over 48 hr divided by maximal OD of control (control = 1) (Tannerella forsythia; 25 μmol/ml): 0.8103

Reference: patent US10945932B2, “Prebiotic oral care compositions containing carboxylic acids” (COLGATE-PALMOLIVE COMPANY, priority 2013, dated 2021)
